Results taken from US20210023233A1, “ANTIBODY-PEPTIDE COMPLEXES AND USES THEREOF” (priority 2018, published 2021).

System: CD20+ Daudi human lymphoma cells
Assay: Toxicity of cisplatin-loaded peptide: Daudi cell proliferation/survival after overnight treatment
Type: cell-based
Settings: treated overnight, 100 μg/ml
Description: FIG. 4 is a graph plotting the toxicity of cisplatin-loaded peptide. CD20+ Daudi human lymphoma cells were treated overnight with 100 μg/ml ABRAXANE® (ABX), 100 μg/ml cisplatin (CIS), 1 mg/ml rituximab (RIT), 1 mg/ml peptide only (PEP), 100 μg/ml peptide-loaded cisplatin (PEP+CIS), peptide with rituximab (PEP+RIT), or 100 μg/ml peptide-loaded cisplatin with rituximab (PEP+CIS+RIT).
CD20+ Daudi human lymphoma cells were treated overnight with 100 μg/ml ABRAXANE® (ABX), 100 μg/ml cisplatin (CIS), 1 mg/ml rituximab (RIT), 1 mg/ml peptide (SEQ ID NO:2) only (PEP), 100 μg/ml peptide-loaded cisplatin (PEP+CIS), peptide with rituximab (PEP+RIT), or 100 μg/ml peptide-loaded cisplatin with rituximab (PEP+CIS+RIT), and cell survival was assessed (FIG. 4).

Molecule	Toxicity to Daudi cells compared with cisplatin-containing peptide (in words)	Daudi proliferation, % of the total (control) proliferation [%]
N.N.[Cl][Pt][Cl] [cisplatin]	equivalent	–
PEP+CIS (VVLCQLCVLHEKTPVSDR)	–	80
